According to US20120122908A1, “Novel C-4 Substituted Retinoids” (University of Maryland, priority 2000, published 2012):
Read-outs that look alike come from different tables or passages of the source.

What was measured:
[1] = biological target: T1, CYP19 (aromatase) (Homo sapiens, UniProt P11511); experiment: Selectivity: effect on CYP19 (aromatase); format: biochemical; details: concentration as high as 5 μM
T1 sequence (P11511 1-503): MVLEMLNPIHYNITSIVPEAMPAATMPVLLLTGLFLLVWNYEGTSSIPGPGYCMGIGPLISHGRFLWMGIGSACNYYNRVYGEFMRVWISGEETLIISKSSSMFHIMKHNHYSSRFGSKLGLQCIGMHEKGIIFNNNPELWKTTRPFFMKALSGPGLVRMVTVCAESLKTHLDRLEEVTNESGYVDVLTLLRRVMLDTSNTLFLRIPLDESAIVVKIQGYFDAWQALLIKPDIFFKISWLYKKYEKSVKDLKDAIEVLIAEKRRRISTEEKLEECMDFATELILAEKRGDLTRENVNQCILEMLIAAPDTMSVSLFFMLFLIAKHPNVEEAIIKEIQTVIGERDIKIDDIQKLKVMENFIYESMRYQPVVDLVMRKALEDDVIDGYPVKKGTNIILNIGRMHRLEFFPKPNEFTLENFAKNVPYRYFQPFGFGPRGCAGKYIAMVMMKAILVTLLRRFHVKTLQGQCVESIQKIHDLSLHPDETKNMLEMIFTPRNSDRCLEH
Method: (§1) The selectivity of the compounds of the present invention towards ATRA-4-hydroxylase was tested by measuring the effect on the key enzymes in the biosynthesis of estradiol and dehydroepiandrosterone, CYP19 (aromatase) and CYP17 (17-lyase), respectively.

[2] = biological target: T2, CYP17 (17-lyase) (Homo sapiens, UniProt P05093); experiment: Selectivity: effect on CYP17 (17-lyase); format: biochemical; details: concentration as high as 5 μM
T2 sequence (P05093 1-508): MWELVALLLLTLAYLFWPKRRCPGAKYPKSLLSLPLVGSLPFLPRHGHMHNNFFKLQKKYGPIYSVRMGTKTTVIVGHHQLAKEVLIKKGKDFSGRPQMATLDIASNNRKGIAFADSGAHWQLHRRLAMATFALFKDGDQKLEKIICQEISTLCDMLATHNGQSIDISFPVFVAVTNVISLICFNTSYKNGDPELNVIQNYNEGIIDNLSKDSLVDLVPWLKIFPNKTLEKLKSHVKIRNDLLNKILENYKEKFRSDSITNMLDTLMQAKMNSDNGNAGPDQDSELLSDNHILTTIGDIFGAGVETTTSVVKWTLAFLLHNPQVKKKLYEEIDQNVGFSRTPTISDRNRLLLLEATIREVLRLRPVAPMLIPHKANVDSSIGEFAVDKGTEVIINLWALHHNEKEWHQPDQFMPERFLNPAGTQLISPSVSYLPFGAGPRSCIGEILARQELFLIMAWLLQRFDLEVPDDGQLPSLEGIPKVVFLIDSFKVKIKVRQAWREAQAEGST
Method: as §1

[3] = Pharmacokinetic studies in mice (plasma levels by HPLC); format: in vivo; details: mice, 10 mg/kg s.c.
Method: FIG. 18: Plasma Levels in Balb/c Mice Following Dose of 10 mg/kg body weight Given s/c.
Pharmacokinetic studies of VN/65-4 and VN/66-1 were measured in mice and were compared to VN/14-1 and VN/50A-1. Mice were dosed s.c. at 10 mg/kg using a vehicle, 45% β-cyclodextrin in water, and plasma levels were measured by HPLC. […] The results are summarized in Table 3 below and the profiles in FIG. 18.

[4] = Effect of VN/65-4 on plasma elimination of ATRA; format: in vivo; details: mice, VN/65-4 10 mg/kg s.c. one hour before ATRA 1.0 mg/kg s.c.
Method: FIG. 19: Plasma Concentration of ATRA (1 mg/kg) After a Dose of 10 mg/kg body weight of VN/65-4.
To determine the ability of VN/65-4 to delay the velocity of plasma elimination of ATRA, mice were treated s.c. with VN/65-4 (10 mg/kg). One hour later, the mice were administered s.c. ATRA (1.0 mg/kg) and sacrificed at various time points. […] From these experiments it is believed that it is possible to improve ATRA efficacy by reducing its enhanced metabolism to increase endogenous levels.

[5] = biological target: ATRA 4-hydroxylase (Mesocricetus auratus, UniProt A0A1U7QD41); experiment: Hamster liver microsome assay of ATRA metabolism (ATRA 4-hydroxylase inhibition); format: biochemical; details: hamster liver microsomes
Method: Washed hamster liver microsomes were prepared as follows: Livers are removed from sacrificed animals, rinsed in ice-cold 0.9% NaCl solution and homogenized in a 3-fold volume of 0.25 M sucrose-0.05 M Tris-HCl (pH 7.4) using a blender. Microsomes are isolated by differential centrifugation (10,000×g, 20 minutes; 100,000×g, 60 minutes; 4° C.) using a well-known technique (Van Wauwe, J.; Van Nyen, G.; Coene, M-C.; Stoppie, P.; Cols, W.; Goossens, J, Borghgraef, P.; Janssen, P A J, Liarozole, an Inhibitor of Retinoic Acid Metabolism, Exerts Retinoid-Mimetic Effects, In Vivo. J. Pharmacol. Expt. Ther. 261, 773-779, 1992). The microsomes are suspended in PBS buffer (pH 7.4), in 1 ml aliquots and stored at −70° C. until required.
The standard reaction mixture (total of 400 μl) is composed of assay buffer, 140 μl; microsomes, 100 μl ([…]); NADPH, 100 μl ([…]); and a C-4 substituted ATRA analog dissolved in DMSO, 40 μl. After a 3 minute preincubation at 37° C., the reaction is initiated by addition of 20 μl of [11,12-^3H]-ATRA (20 μCi/ml). The incubation is carried out for 30 minutes under oxygen with shaking in a water bath at 37° C. The reaction is stopped by acidification with 0.1 ml formic acid, and the samples are extracted (×2) with EtOAc (2 ml) containing 0.05% butylated hydroxyanisole. The combined organic extracts are evaporated in vacuo, dissolved in 200 μl of the mobile phase for HPLC. An aliquot is analyzed for tritium content by liquid scintillation spectrometry. Usually, >95% of the added radioactivity is recovered. Most of the samples (150 μl) are analyzed on a 10 (m C18 Bondapak column (3.9×300 mm, Millipore), eluted with a multi-linear gradient solvent system: i, MeOH—H2O—HCOOH (60:40:0.05) containing 10 mM ammonium acetate (100 (0%) and ii, MeOH (0 (100%) at 2 ml/min. The radioactivity is measured by an on-line radio-detector. The Rts of ATRA, 4-hydroxy-ATRA and 4-oxo-ATRA are determined by UV absorbance at 350 nm in separate cuvettes. Typically, 80±5% of [11, 12-^3H]ATRA is converted into the metabolites.
The C-4 substituted ATRA analogs are tested at two concentrations, 500 and 1000 nM. IC50 and Ki values are determined.
Incubation of [11,12-^3]ATRA with hamster liver microsomes as described above results in the formation of polar metabolites, including 4-hydroxy-ATRA and 4-oxo-ATRA (see FIG. 7A). […] VN/14-1RA inhibits cytochrome P450-dependent metabolism of ATRA.
Table 2B represents repeated testing of some of the compounds in Table 2A and testing on additional compounds. For comparison, the IC50 values of liarozole and ketoconazole (known inhibitors of ATRA 4-hydroxylase) were also determined.

[6] = test system: LNCaP cells; experiment: LNCaP cell growth, compound in combination with ATRA; format: cell-based, human; details: for inhibition of proliferation of LNCaP cells: 10^−8 to 10^−5 M in combination with 10^−5 M ATRA, compared with no drug or ATRA only; for concentration(s) that prevent the LNCaP cells from increasing in number: in combination with 10^−5 M ATRA, tested 10^−8 to 10^−5 M
Method: LNCaP cells are androgen-dependent cell cultures. PC-3 cells are androgen independent cell culture.
LNCaP cells are transferred into ATRA-free medium 3 days prior to start of experiments. Medium consist of phenol red-free IMEM supplemented with 5% FBS and 1% P/S. Cell are then plated into 24-well culture plates (15000 cells per well) in 1 mL of same medium. After a 24-hour attachment period, the vehicle (ethanol) or ATRA (10^−5 M) alone or ATRA in combination with a novel compound at a range of concentrations are added to triplicate wells. Medium/treatments are changed every 3 days. After 9 days of treatment, cells are removed from the wells with typsin/EDTA and counted in a Coulter counter. Using well-known methods (Wouters W, Van Dun J, Dillen A, Coene M.-C, Cools W and De Coster R, Effects of liarozole, a new antitumoral compound an retinoic acid-induced inhibition of cell growth and on retinoic acid metabolism in MCF-7 breast cancer cells, Cancer Res 52: 2841-2846, 1992), one determines the inhibitory effect of the novel compounds on LNCaP cells grown with ATRA.

[7] = test system: PC-3 tumors; experiment: Growth of PC-3 tumors in male nude mice; format: in vivo; details: PC-3 xenografts
Method: FIG. 20: Effect of ATRA and VN/50A-1 on PC 3 Tumor Volumes in Male Nude Mice
The effects of VN/50A-1 on tumor growth was determined in mouse xenografts and compared to ATRA as the reference treatment (FIG. 20). Mice were grouped 35 days after cell inoculation when measurable tumor volume was approximately 500 mm^3. Total tumor volume in the control mice increased 5.4-fold over 7 weeks and tumor volume in the mice treated with ATRA increased by 3.2-fold (41% reduction compared with control). In the mice treated with VN/50A-1, tumor volume increased by 3.5-fold, which was 38% reduction versus control mice, which correlated well with accumulation of ATRA in plasma and in tumors. […] VN/50A-1 is completely eliminated from plasma within 3 hour of administration to mice (see FIG. 18). The inventive compounds with longer half-lives will have favorable bioavailability and are expected to be more efficacious.

[8] = test system: ATRA 4-hydroxylase activity in LNCaP cells; experiment: Induction of ATRA metabolism in LNCaP cells; format: cell-based, human; details: LNCaP cells preincubated with 1.0 μM ATRA, 0.8 μM [3H]ATRA
Method: FIG. 17: Metabolism of 0.8 μM 3H-ATRA Following Induction with 1 μM ATRA in LNCaP Cells.
The potential of these cell lines to metabolize ATRA was investigated. […] LNCaP cells were preincubated with 1.0 μM ATRA for different time periods up to 48 hour. Following preincubation, ATRA metabolism was determined using 0.8 μM [11,12-^3H]ATRA. Induction of 4-hydroxylase activity ([^3H]ATRA metabolism was time-dependent with a fast onset and maximal induction achieved after a preincubation period of 18 hour (FIG. 17).

[9] = Table 2A, initial testing, read-out: IC50 Value
[10] = Table 2B, repeated testing and additional compounds, read-out: IC50 Value, Inhibition of ATRA 4-Hydroxylase

ATRA 4-hydroxylase, sequence (A0A1U7QD41 entry or part of it): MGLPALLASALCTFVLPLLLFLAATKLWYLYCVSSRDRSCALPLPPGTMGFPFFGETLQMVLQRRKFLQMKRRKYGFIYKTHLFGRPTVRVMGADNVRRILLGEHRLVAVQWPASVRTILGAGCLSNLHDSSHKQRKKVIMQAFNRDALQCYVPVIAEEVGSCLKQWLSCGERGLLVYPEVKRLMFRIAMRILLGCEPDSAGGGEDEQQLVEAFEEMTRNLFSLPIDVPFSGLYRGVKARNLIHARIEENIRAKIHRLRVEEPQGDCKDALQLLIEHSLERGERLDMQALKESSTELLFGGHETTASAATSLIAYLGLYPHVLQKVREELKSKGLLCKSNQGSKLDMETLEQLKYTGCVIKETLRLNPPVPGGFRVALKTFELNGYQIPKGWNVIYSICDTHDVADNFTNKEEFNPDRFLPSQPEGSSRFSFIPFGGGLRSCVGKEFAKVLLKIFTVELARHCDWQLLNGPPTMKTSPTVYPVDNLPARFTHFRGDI

Row | Structure (SMILES) | IC50 [5, 9] [nM] | IC50 [5, 10] [nM] | inhibition of proliferation of LNCaP cells [6] | concentration(s) that prevent the LNCaP cells from increasing in number [6] | also measured
1 | COC(=O)C=C(C)C=CC=C(C)C=CC1=C(C)C(n2ccnc2)CCC1(C)C (mixture of isomers) [VN/65-4, (±)-4-(1H-imidazol-1-yl)-13-cis-methylretinoate] | – | – | – | – | inhibition of CYP19 (aromatase) [1]: barely inhibited; inhibition of CYP17 (17-lyase) [2]: barely inhibited; in vivo conversion to corresponding acid [3]: rapidly and completely converted to corresponding acid; rate of plasma elimination of ATRA [4]: delayed the rate of ATRA elimination significantly
2 | COC(=O)C=C(C)C=CC=C(C)C=CC1=C(C)C(n2cncn2)CCC1(C)C (racemic) [VN/13-1, (±)-4-(1H-1,2,4-triazol-1-yl)methyl retinoate] | 680 ± 3 | 1 ± 0.05 | – | – | –
3 | COC(=O)C=C(C)C=CC=C(C)C=CC1=C(C)C(n2cnnc2)CCC1(C)C (racemic) [VN/13-2, (±)-4-(4H-1,2,4-triazole-1-yl)methyl retinoate] | – | 10 ± 0.3 | – | – | –
4 | CC1=C(/C=C/C(C)=C/C=C/C(C)=C/C(=O)O)C(C)(C)CCC1n1cncn1 (racemic) [VN/16-1, (±)-4-(1H-1,2,4-triazol-1-yl)retinoic acid] | 880 ± 8 | 5 ± 0.25 | inhibit the proliferation of LNCaP cells better than no drug or ATRA only | 10^−5 M | –
5 | CC1=C(/C=C/C(C)=C/C=C/C(C)=C/C(=O)O)C(C)(C)CCC1n1cnnc1 (racemic) [VN/17-1] | 1620 | 25 ± 0.5 | inhibit the proliferation of LNCaP cells better than no drug or ATRA only | All concentrations | –
6 | CC1=C(/C=C/C(C)=C/C=C/C(C)=C/C(=O)O)C(C)(C)CCC1 [ATRA, All-trans retinoic acid, reference compound] | – | – | – | – | tumor weights versus control mice [7]: significantly (P<0.05) lower; reduction of tumor volume compared with control ([7]; over 7 weeks): 41%; increase of total tumor volume ([7]; over 7 weeks, control 5.4-fold): 3.2 fold; preincubation period for maximal induction of 4-hydroxylase activity [8]: 18 h
7 | Clc1cccc(C(c2ccc3[nH]cnc3c2)n2ccnc2)c1 (stereo not drawn) [Liarozole, reference compound] | – | – | inhibit the proliferation of LNCaP cells better than no drug or ATRA only | 10^−5 M | –
